Laboratory results taken from PMC5215686 (Journal of medicinal chemistry, 2016).
Where “and” joins values, the source holds several entries; their conditions need not be identical. Equal values may be shown once.

Assays:
[1] = tested on: Sprague-Dawley rats; test: Vogel conflict test; format: in vivo; settings: rat
[2] = tested on: HEK293T cells; test: Cytotoxicity, CellTiter-Glo; format: cell-based, human; settings: for Cytotoxicity in words: 18 h, 100 μM; for Cytotoxicity (18 h) LD50: CellTiter-Glo, n = 4
[3] = tested on: NIH Swiss Webster mice; test: Marble burying assay; format: in vivo
[4] = Plasma and brain exposure after dosing in rats; format: in vivo, Sprague-Dawley rats; settings: rat; for Brain concentration of dosed ligand, 60 min / Total Plasma Concentration, 15 min / Total Plasma Concentration, 30 min / Total Plasma Concentration, 60 min / Brain concentration of dosed ligand, 120 min / Total Plasma Concentration, 120 min: p.o. 10 mg/kg; for Plasma exposure in words: i.v. (1 mg/kg) or p.o. (10 mg/kg); for Total Plasma Concentration, 15 min / Total Plasma Concentration, 30 min / Total Plasma Concentration, 60 min / Brain concentration of dosed ligand, 120 min / Total Plasma Concentration, 120 min: BQL: quantifiable limit < 12.2 nM
[5] = Rat pharmacokinetics i.v. and i.p., plasma and brain concentrations; format: in vivo, Sprague-Dawley rats
[6] = Solubility by light scattering; format: physicochemical; settings: pH=7, by light scattering
[7] = tested on: NIH Swiss Webster mice; test: Rotarod assay; format: in vivo; settings: 4 r.p.m., 2 min; for Rotarod motorsensory behavior, 10 mg/kg: i.p. 10 mg/kg

CNC1=Nc2ccc(Cl)cc2C(c2ccccc2)=[N+]([O-])C1 [CDAP, chlordiazepoxide, reference compound]
Vogel conflict, response rate in the unpunished session, 20 mg/kg ([1]; 20 mg/kg i.p.): Neither
Vogel conflict, punished response over control, 20 mg/kg ([1]; 20 mg/kg i.p., P < 0.05): 330%

C#Cc1ccc2c(c1)C(c1ccccn1)=NCc1c(-c3nc(CC)no3)ncn1-2 [compound 7]
Cytotoxicity in words [2]: non-toxic
Marble burying vs. vehicle, 10 mg/kg ([3]; i.p. 10 mg/kg, 30 min prior to testing): significant reduction
Sedation-like behavior observed in marble burying ([3]; i.p. 30 mg/kg): weak signs of sedation
Brain concentration of dosed ligand, 60 min [4]: (60) 3090 nM

C#Cc1ccc2c(c1)C(c1ccccn1)=NCc1c(-c3cnco3)ncn1-2 [compound 9, 5-(8-Ethynyl-6-(pyridin-2-yl)-4H-benzo[f]imidazo[1,5-a][1,4]diazepin-3-yl)oxazole]
time of Cmax ([5]; 10 mg/kg i.p.): 2.0 h
Unbound Concentration (Cu), Brain ([5]; 4 hours after 10 mg/kg i.p., free fraction x total concentration): 363 nM
Cytotoxicity in words [2]: non-toxic
solubility [6]: good
Vogel conflict, punished response vs. control, 3 mg/kg ([1]; 3 mg/kg i.p., 30 min pretreatment): no increase in response
Vogel conflict, increase of punished response rate over control, 30 mg/kg ([1]; 30 mg/kg i.p., 30 min pretreatment): about 220%
Brain concentration of dosed ligand, 60 min [4]: (60) 3640 nM
Rotarod failures, 30 mg/kg ([7]; i.p. 30 mg/kg): zero failures
Rotarod performance / ataxia, 30 mg/kg ([7]; i.p. 30 mg/kg): did not significantly alter rotarod performance compared to vehicle

[2H]C([2H])(C)OC(=O)c1ncn2c1CN=C(c1ccccn1)c1cc(C#C)ccc1-2 [compound 5]
Plasma exposure in words [4]: poor
Total Plasma Concentration, 15 min [4]: BQL ^c
Total Plasma Concentration, 30 min [4]: BQL ^c
Total Plasma Concentration, 60 min [4]: BQL ^c
Brain concentration of dosed ligand, 120 min [4]: (120) BQL ^c
Total Plasma Concentration, 120 min [4]: BQL ^c

C#Cc1ccc2c(c1)C(c1ccccn1)=NCc1c(C(=O)OCC)ncn1-2 [compound 2]
Cytotoxicity in words [2]: non-toxic
Vogel conflict, difference from vehicle in words, 30 mg/kg ([1]; 30 mg/kg i.p.): no discernable difference
Plasma exposure in words [4]: poor
Total Plasma Concentration, 15 min [4]: BQL ^c
Total Plasma Concentration, 30 min [4]: BQL ^c
Total Plasma Concentration, 60 min [4]: BQL ^c
Brain concentration of dosed ligand, 120 min [4]: (120) BQL ^c
Total Plasma Concentration, 120 min [4]: BQL ^c

C#Cc1ccc2c(c1)C(c1ccccn1)=NCc1c(C(=O)O)ncn1-2 [compound 4]
Brain concentration of dosed ligand, 120 min [4]: (120) BQL ^c

C#Cc1ccc2c(c1)C(c1ccccc1F)=NCc1c(-c3cnco3)ncn1-2 [compound 10]
Cytotoxicity (18 h) LD50 [2]: 61.5 µM and 61.5 ± 10 µM
Rotarod motorsensory behavior, 10 mg/kg [7]: very minor impairment

C#Cc1ccc2c(c1)C(c1ccccn1)=NCc1c(-c3nc(C)no3)ncn1-2 [compound 6]
Cytotoxicity in words [2]: non-toxic
Rotarod motorsensory behavior, 10 mg/kg [7]: very minor impairment

C#Cc1ccc2c(c1)C(c1ccccc1)=NCc1c(-c3cnco3)ncn1-2 [compound 8]
Cytotoxicity (18 h) LD50 [2]: 66.8 µM and 66.8 ± 9 µM
